The structures appear in SMILES notation.

The nature of assay [1]: Binding affinity to AP.A-20 DNA duplex by CD titration.
Assay [2] in a line: Binding affinity to T.A-20 DNA duplex by CD titration.
A short description of assay [3]: Binding affinity to MG.C-20 DNA duplex by CD titration.
Assay [4] in a line: Binding affinity to OG.A-20 DNA duplex by CD titration.
Assay [5] in a line: Binding affinity to G.A-20 DNA duplex by CD titration.

By Kd is commonly meant a measure of binding affinity in units of concentration. Read a high Kd as weaker binding. Turning to `Cn1cc(NC(=O)c2cc(NC(=O)c3cc(NC=O)cn3C)cn2C)cc1C(=O)NCCC(=N)N` [STALLIMYCIN], the Kd stood at 2 µM in assay [1]; 0.37 µM in assay [2]; 7.6 µM in assay [3]; 0.2 µM in assay [4]; 3.7 µM in assay [5].

Values taken from ChEMBL document CHEMBL1140769, “Characterization of distamycin A binding to damaged DNA” (Bioorg Med Chem, 2008).
